# Like-named read-outs stand apart in the source and are kept apart here.
# What was measured:
# [1] = molecular target: T. cruzi complex III (epimastigote lysates) (Trypanosoma cruzi, UniProt Q9T479); experiment: T. cruzi complex III assay; assay type: biochemical; details: decylubiquinol substrate
# Method: Complex III activity within these lysates was monitored in the presence and absence of compound 3, compound 5 and related analogues from this series, using decylubiquinol as a pseudo-substrate ([43]).
# Measurement of complex III activity and inhibition were performed as described previously ([43]).
# [2] = test system: T. cruzi epimastigotes bearing mutations in cytochrome b; experiment: epimastigote drug sensitivity assay, cytochrome b mutant / resistant lines; assay type: cell-based, Trypanosoma cruzi; details: for EC50: Trypanosoma cruzi
# Method: (§1) T. cruzi epimastigotes from the Silvio strain (MHOM/BR/78/Silvio; clone X10/7A) were grown at 28°C in RTH/FBS medium ([80]).
# (§2) T. cruzi epimastigote assays carried out as described previously ([43]).
# Compound-resistant cell lines were generated by subculturing clones of wild-type T. cruzi epimastigotes in the continuous presence of compound 3 or compound 5. Starting at sublethal concentrations, drug concentrations in 3 independent cultures were increased in a stepwise manner, usually by 2-fold. When parasites were able to survive and grow in compound concentrations equivalent to >30-fold their established EC50 value, they were cloned by limiting dilution in the presence of compound. Three independent clones were selected from each compound for further study.
# [3] = test system: wild-type T. cruzi epimastigotes; experiment: epimastigote drug sensitivity assay, wild-type; assay type: cell-based; details: Trypanosoma cruzi
# Method: as §1, §2
# [4] = set-up: method as in PMID 21073628, PMID 20932171; details: patients; cited from earlier work
# T. cruzi CYP51 = T. cruzi CYP51 (Trypanosoma cruzi, UniProt Q7Z1V1); experiment: T. cruzi CYP51 biochemical assay
# T. cruzi CYP51, sequence (Q7Z1V1 whole entry): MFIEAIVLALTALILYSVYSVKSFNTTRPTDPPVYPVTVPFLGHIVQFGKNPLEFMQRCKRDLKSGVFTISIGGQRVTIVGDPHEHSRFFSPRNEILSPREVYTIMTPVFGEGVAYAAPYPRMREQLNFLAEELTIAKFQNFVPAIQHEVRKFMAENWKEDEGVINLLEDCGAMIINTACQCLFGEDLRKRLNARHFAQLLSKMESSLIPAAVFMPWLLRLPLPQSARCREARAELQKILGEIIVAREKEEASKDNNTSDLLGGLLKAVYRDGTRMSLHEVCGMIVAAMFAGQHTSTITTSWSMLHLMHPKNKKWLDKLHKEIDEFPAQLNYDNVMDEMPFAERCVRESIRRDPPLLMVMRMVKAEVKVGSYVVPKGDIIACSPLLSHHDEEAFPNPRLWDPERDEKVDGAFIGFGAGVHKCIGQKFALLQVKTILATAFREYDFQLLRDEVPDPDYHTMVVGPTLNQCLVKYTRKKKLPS
# [5] = test system: T. cruzi culture derived trypomastigotes, strain Silvio X10/7 A1; experiment: trypomastigote assay; assay type: cell-based; details: Trypanosoma cruzi
# Method: Trypomastigote assays using strain Silvio X10/7 subclone A1 were carried out as described in ([19]). Parasite culture and potency determinations for panel of strains were performed as in ([19]). Strains used were M6241 clone 6 (DTU III), ERA clone 2 (DTU IV), PAH179 clone 5 (DTU V) and CL Brener-Luciferase (PpyRE9h-expressing T. cruzi, same strain that is used in animal model studies ([67])) (DTU VI). […] For Y strain compound exposure time was 3 days. Rate-of-kill assays were carried out as described in ([39]).
# FaSSIF solubility assay = assay type: physicochemical; details: pH 6.5, 4 h
# Method: Solubility of test compounds in fasted simulated intestinal fluid (FaSSIF) was determined at pH 6.5 after 4 h equilibration at rt. An amount of1 mL of FaSSIF buffer (3 mM sodium taurocholate, 0.75 mM lecithin in sodium phosphate buffer at pH 6.5) was added to manually weighed 1 mg of solid compound in a 2 mL HPLC autosampler vial. The resulting suspension was shaken at 900 rpm for 4 h at rt and then transferred to a Multiscreen HTS, 96-well solubility filter plate. The residual solid was removed by filtration. The supernatant solution was quantified by HPLC−UV using single-point calibration of a known concentration of the compound in DMSO. The dynamic range of the assay was 1−1000 μg/mL.
# [6] = kinetic aqueous solubility (CLND); assay type: physicochemical; details: phosphate buffered saline, aqueous buffer, kinetic from dmso stock, pH 7.4
# Method: The eluent is quantified by suitably calibrated flow injection CLND. This assay has a dynamic range between the lower detection limit of 1 and 500 μM, governed by the protocol’s 1:20 dilution into pH 7.4 phosphate buffer solution from nominal 10 mM DMSO stock.
# HepG2 cells = experiment: general cytotoxicity assay in HepG2 cells; assay type: cell-based; details: Homo sapiens, HepG2, 48 h, CellTiter-Glo
# Method: This assay was previously described ([36]). Briefly, actively growing HepG2 cells were removed from a T-175 TC flask using 5 ml Eagle’s MEM (containing 10 % FBS, 1 % NEAA, 1 % penicillin/ streptomycin. Carbon source is D-glucose at 1 g/l) and dispersed in the medium by repeated pipetting. Seeding density was checked to ensure that new monolayers were not more than 50 % confluent at the time of harvesting. Cell suspension was added to 500 ml of the same medium at a final density of 1.2 x 10^5 cells/ml. This cell suspension was dispensed (25 μl, 3000 cells per well) into 384-well clear-bottom plates using a Multidrop Combi dispenser. Prior to addition of the cell suspension, the screening compounds (250 nl) were predispensed into the plates with an EchoH liquid handler. Plates were incubated for 48 h at 37°C, 5% CO2. After incubation, plates equilibrated at room temperature for 30 min before proceeding to develop the luminescent signal. The signal developer, CellTiter-Glo Reagent, was allowed to equilibrate at room temperature for 30 min and added to the plates ([…]) using a Multidrop Combi dispenser. Plates were left for 10 min at room temperature for stabilization and then read using a ViewLux.
# Property Forecast Index = assay type: physicochemical; details: number of aromatic rings + ChromLogD at pH 7.4
# Vero host cells = experiment: cytotoxicity against host cells in intracellular amastigote assay; assay type: cell-based; details: host cell cytotoxicity; for EC50: Chlorocebus sabaeus, Vero
# [7] = chromatographic LogD assay; assay type: physicochemical; details: reversed phase HPLC column (Gemini NX C18), pH 7.4; read-out: Chrom logD pH 7.4
# Method: The chromatographic hydrophobicity index (CHI) values were measured using reversed phase HPLC column (50 mm × 2 mm, 3 μm Gemini NX C18, Phenomenex, U.K.) with fast acetonitrile gradient at starting mobile phase at pH 7.4. CHI values were derived directly from the gradient retention times by using a calibration line obtained for standard compounds. The CHI value approximates to the volume % organic concentration when the compound elutes. CHI was linearly transformed into ChromlogD by least-squares fitting of experimental CHI values to calculated log P (ClogP) values for over 20K research compounds using the following formula: ChromlogD = 0.0857CHI − 2.00. The average error of the assay is ±3 CHI units or ± 0.25 ChromlogD.
# [8] = test system: intracellular T. cruzi amastigotes, strain Silvio X10/7 A1; experiment: intracellular T. cruzi amastigote potency assay; assay type: cell-based; details: Trypanosoma cruzi
# [9] = test system: intracellular T. cruzi Silvio X10/7 A1 in Vero cells; experiment: washout outgrowth assay; assay type: cell-based, Trypanosoma cruzi; details: 8-days treatment, BNZ at 12.5× EC50 (Fig. S7)
# Method: Washout outgrowth assay: Vero cells were infected overnight in T600 flasks at a multiplicity of infection (MOI) 5 with T. cruzi Silvio X10/7 A1 trypomastigotes, followed by washing of the Vero monolayer to remove free trypomastigotes. 24 hours later the monolayer was trypsinised, 5.3 x 10^6 Vero cells were plated in T75 tissue culture flasks (in 20 ml MEM-Glutamax (ThermoFisher), 1% Fetal Calf Serum (FCS)), and treatment was started. For ten-day treatments, medium with compounds was replaced after the initial 5 days. For 16 day treatments the compounds were replaced every four days. For compound washout, all medium was aspirated, and flasks were washed three times with 10 ml serum-free MEM medium followed by a final aspiration and addition of 20 ml MEM-Glutamax (ThermoFisher) supplemented with 1% FCS. The cultures were then maintained until trypomastigotes were detected by light microscopy. Medium was replaced twice weekly and prior to each medium replacement microscopic evaluation was carried out (five fields per flask) for up to 60 days post washout. Robustness of the data was confirmed by profiling multiple compounds from the pyrrolopyrimidine series in a single experiment (compounds 2,3 and 4 in Fig. 2 and Fig. S17) as well as comparing results from independent experiments (compound 2 in Fig. 2, Fig. S5 and Fig. S7).
# [10] = read-out: Trypomastigotes pEC50 (converted)
# [11] = read-out: Vero pEC50 (converted)
# [12] = intracellular amastigotes Silvio X10/7 A1, 96 h, ± SD, min. three experiments, read-out: Amastigotes pEC50 (converted)
# T. cruzi complex III (epimastigote lysates), sequence (Q9T479 entry or part of it, one chain of several): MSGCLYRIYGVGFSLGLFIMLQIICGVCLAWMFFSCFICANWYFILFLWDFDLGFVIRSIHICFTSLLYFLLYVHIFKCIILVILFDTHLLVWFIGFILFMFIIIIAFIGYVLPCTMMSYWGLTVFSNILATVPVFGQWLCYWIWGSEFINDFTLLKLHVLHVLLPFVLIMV
compound,measurement,setting,value
"COc1cc(F)ccc1-c1c(C)n(C)c2nc(N)nc(C)c12 [Compound 5, 5-(4-Fluoro-2-methoxyphenyl)-4,6,7-trimethyl-7H-pyrrolo[2,3-d]pyrimidin-2-amine]",IC50,[1],1 ± 0.2 nM
same,EC50,[2]; read-out: EC50 F222L,486 ± 18 nM
same,EC50,[2]; read-out: EC50 G36C/L197F cytb line,1.2 ± 0.1 nM
same,EC50,[2]; read-out: EC50 G36C/L197I cytb line,37 ± 2 nM
same,EC50,[2]; read-out: EC50 L197F cytb line,1.1 ± 0.1 nM
same,EC50,[2]; read-out: EC50 L197I,21 ± 0.5 nM
same,EC50,[2]; read-out: EC50 compound 5-resistant clone RES1,417 ± 11 nM
same,EC50,[2]; read-out: EC50 compound 5-resistant clone RES2,585 ± 30 nM
same,EC50,[2]; read-out: EC50 compound 5-resistant clone RES3,635 ± 33 nM
same,"fold change from WT, L197I",[2]; compound 3-resistant line (L197I),10 fold
same,"fold change from WT, F222L",[2]; compound 5-resistant line (F222L),224 fold
same,cross-resistance of G36C and L197I epimastigotes,[2]; versus wild-type,9 fold
same,EC50,[3]; read-out: EC50 wild-type,2.4 ± 0.1 nM
same,EC50,[3]; read-out: EC50 wild-type epimastigotes,11.3 ± 0.5 nM
same,EC50,"[3]; Table 2, wild-type epimastigotes, read-out: EC50 WT",2 ± 0.1 nM
"CC1CS(=O)(=O)CCN1/N=C/c1ccc([N+](=O)[O-])o1 (stereo not drawn) [NFX, nifurtimox]",discontinuation of treatment prior to completion due to adverse side-effects,[4],≤ 43%
"COc1ccccc1-c1c(C)[nH]c2nc(N)nc(C)c12 [Compound 1, 5-(2-methoxyphenyl)-4,6-dimethyl-7H-pyrrolo[2,3-d]pyrimidin-2-amine]",IC50,T. cruzi CYP51,> 100000 nM
same,inhibition of recombinant T. cruzi CYP51,T. cruzi CYP51; direct biochemical assay,did not inhibit
same,EC50,[5]; read-out: Trypomastigotes EC50,250 nM
same,EC50,[5]; [10],251 nM
same,FaSSIF pH 6.5,FaSSIF solubility assay,456 µg/mL
same,solubility at 1 h,[6],110 µg/mL
same,EC50,HepG2 cells; read-out: HepG2 EC50,> 100000 nM
same,PFI,Property Forecast Index,6.2
same,EC50,Vero host cells; read-out: Vero EC50,> 50000 nM
same,EC50,Vero host cells; [11],> 31600 nM
same,Vero pEC50,Vero host cells,< 4.3
same,chromatographic logD,[7],3.2
same,EC50,[8]; [12],316 nM
same,EC50,[8]; read-out: Amastigotes EC50,320 nM
"CC[C@@H]([C@H](C)O)n1ncn(-c2ccc(N3CCN(c4ccc(OC[C@@H]5CO[C@@](Cn6cncn6)(c6ccc(F)cc6F)C5)cc4)CC3)cc2)c1=O [Posaconazole, reference compound]",EC50,[5]; read-out: Trypomastigotes EC50,> 50000 nM
same,EC50,[5]; [10],> 50100 nM
same,solubility at 1 h,[6],14 µg/mL
same,EC50,HepG2 cells; read-out: HepG2 EC50,> 100000 nM
same,EC50,HepG2 cells; read-out: HepG2 pEC50 (converted),> 100000 nM
same,PFI,Property Forecast Index,11.1
same,EC50,Vero host cells; read-out: Vero EC50,> 50000 nM
same,EC50,Vero host cells; [11],> 50100 nM
same,chromatographic logD,[7],6.1
same,EC50,[8]; [12],2.51 nM
same,EC50,[8]; read-out: Amastigotes EC50,3 nM
same,washout outcome in combination with BNZ,[9],failed to eliminate all parasites

# Reference: article PMC7615676, “Short-course combination treatment for experimental chronic Chagas disease” (Science translational medicine, 2023)
